Results as given in patent US20260265190A1, “AROMATIC COMPOUNDS FOR USE AS PROTEIN PHOSPHATASE 2A (PP2A) MODULATORS” (RAPPTA THERAPEUTICS OY, priority 2022, published 2026).

Tested on: HCC1937 cells
Experiment: Cell viability assay (MTS), HCC1937 cell line
Assay type: cell-based
Conditions: Homo sapiens, HCC1937 cell line (footnote a), 48 hours
Experimental: HCC1937 cells are plated in a 96 well plate format at a density of 10,000 cells per well. After incubation overnight, cells are treated with a compound (e.g., compound 5) at the following concentrations: 80, 40, 20, 10, 5, 2.5, 1.25 μM. Compound concentrations are prepared in RPMI via serial dilutions from a starting stock of 80 mM. Forty-eight (48) hours after compound treatment, cell viability is assessed using the Promega CellTiter 96 aqueous one proliferation assay (Promega G3582, MTS assay) according to manufacturer's protocol.
The cell viability data was analyzed with GraphPad Prism software. The values were log transformed and analyzed with non-linear regression (curve-fit) using log (inhibitor) vs. response—variable slope (four parameters) and constraining the bottom to equal zero. Unless otherwise indicated, the GI50 values provided in Table 1 correspond to the LNCaP cell viability assays.

O=S(=O)(N[C@@H](CN1CCNCC1)c1ccc(Cl)cc1)c1ccccc1 [Example 25, (R)-N-(1-(4-chlorophenyl)-2-(piperazin-1-yl)ethyl)benzenesulfonamide]
GI50: 40.6 µM
